Data on 3 compounds can be found in patent US4169197A, “6-Deoxyneamines aminoglycoside compounds” (The Upjohn Company, priority 1978, dated 1979).

What all share (type): cell-based
The test system of one assay is S. gallinarum UC 265. Briefly: standard disc plate assay, zones of inhibition. The conditions noted are these: Salmonella enterica, 12.5 mm paper discs, read-out: Zones of Inhibition; for zone of inhibition at 100 µg/mL: 0.1 mg/ml; for zone of inhibition at 1000 µg/mL: 1 mg/ml. The source says:
(§1) The compounds of formulas (V, VII, IX, XI, XIV, XVI, and XIX) are active as antibacterials and can be used in various environments to erradicate or control susceptible microorganisms. Tables I and II set forth the in vitro antibacterial test results for representative compounds of the present invention. The results were obtained with a standard disc plate assay using 12.5 mm paper discs.

A further assay has as its system B. subtilis UC 564. Briefly: standard disc plate assay, zones of inhibition. The conditions noted are these: Bacillus subtilis, UC564, 12.5 mm paper discs, read-out: Zones of Inhibition; for zone of inhibition at 100 µg/mL: 0.1 mg/ml; for zone of inhibition at 1000 µg/mL: 1 mg/ml.
Text: as §1

Assay [1] deals with S. schottmuelleri UC 126. Briefly: standard disc plate assay, zones of inhibition. As to conditions: 1 mg/ml, 12.5 mm paper discs.
Text: as §1

The subject of assay [2] is P. vulgaris UC 93. Briefly: standard disc plate assay, zones of inhibition. As to conditions: Proteus vulgaris, UC93, 1 mg/ml, 12.5 mm paper discs, read-out: Zones of Inhibition.
Text: as §1

A further assay has as its system K. pneumoniae UC 57. Briefly: standard disc plate assay, zones of inhibition. The conditions noted are these: Klebsiella pneumoniae, UC57, 12.5 mm paper discs, read-out: Zones of Inhibition; for zone of inhibition at 100 µg/mL: 0.1 mg/ml; for zone of inhibition at 1000 µg/mL: 1 mg/ml.
Text: as §1

Assay [3] has as its system Ps. aeruginosa UC 95. Kind of assay: standard disc plate assay, zones of inhibition. As to conditions: Pseudomonas aeruginosa, UC95; 1 mg/ml; 12.5 mm paper discs; Table II; read-out: Zones of Inhibition.
Text: as §1

The test system of another assay is E. coli UC 51. Briefly: standard disc plate assay, zones of inhibition. As to conditions: Escherichia coli, UC51, 12.5 mm paper discs, read-out: Zones of Inhibition; for zone of inhibition at 100 µg/mL: 0.1 mg/ml; for zone of inhibition at 1000 µg/mL: 1 mg/ml.
Text: as §1

Another assay concerns B. cereus UC 3145. Kind of assay: standard disc plate assay, zones of inhibition. As to conditions: Bacillus cereus, 12.5 mm paper discs.
Text: as §1

A further assay concerns S. lutea UC 130. Kind of assay: standard disc plate assay, zones of inhibition. The conditions noted are these: Micrococcus luteus, UC130, 1 mg/ml, 12.5 mm paper discs, read-out: Zones of Inhibition.
Text: as §1

A further assay concerns S. aureus UC 80. Kind of assay: standard disc plate assay, zones of inhibition. As to conditions: Staphylococcus aureus, 12.5 mm paper discs; for zone of inhibition at 100 µg/mL: 0.1 mg/ml.
Text: as §1

In assay [4] the test system is S. schottmuelleri UC 126. Briefly: standard microplate test in BHI Agar. As to conditions: 37°, 20 hours, Table IV, read-out: Minimal Inhibitory Concentration. The method, then:
(§2) The compounds VII, XI, XVβ, XVα and XVI were tested in a standard microplate test in BHI (Brain Heart Infusion) Agar at a concentration of 1 mg./ml. and dilutions thereof at 37° incubation temperature. The end points are read out 20 hours. BHI Agar is supplied by Difco Laboratories, Detroit, Mich.

Assay [5] has as its system P. vulgaris UC 93. Briefly: standard microplate test in BHI Agar. The conditions noted are these: Proteus vulgaris, UC93; BHI Agar, 37°, 20 hours; Table IV; read-out: Minimal Inhibitory Concentration. Here is the method: as §2
A further assay concerns S. marcescens UC 131. Briefly: standard microplate test in BHI Agar. The conditions noted are these: Serratia marcescens, UC131; BHI Agar, 37°, 20 hours; Table IV; read-out: Minimal Inhibitory Concentration. The method, then: as §2
The test system of a further assay is E. coli UC 311. Kind of assay: standard microplate test in BHI Agar. The conditions noted are these: Escherichia coli, UC311; BHI Agar, 37°, 20 hours; Table IV; read-out: Minimal Inhibitory Concentration. Here is the method:
as §2

The subject of assay [6] is Ps. aeruginosa UC 95. Kind of assay: standard microplate test in BHI Agar. The conditions noted are these: Pseudomonas aeruginosa, UC95; BHI Agar, 37°, 20 hours; Table IV; read-out: Minimal Inhibitory Concentration. Here is the method:
as §2

The test system of the next assay is S. aureus UC 76. Kind of assay: standard microplate test in BHI Agar. As to conditions: Staphylococcus aureus, read-out: Minimal Inhibitory Concentration. Here is the method:
as §2

Another assay concerns S. pyogenes UC 152. Briefly: standard microplate test in BHI Agar. As to conditions: Streptococcus pyogenes, read-out: Minimal Inhibitory Concentration. Here is the method:
as §2

In the next assay the test system is S. faecalis UC 694. Briefly: standard microplate test in BHI Agar. The conditions noted are these: Enterococcus faecalis, UC694, 20 h, read-out: Minimal Inhibitory Concentration. Here is the method:
as §2

Another assay has as its system S. typhi UC 215. Kind of assay: standard microplate test in BHI Agar. As to conditions: Salmonella enterica, 20 h, read-out: Minimal Inhibitory Concentration. The method, then:
as §2

The test system of another assay is K. pneumoniae UC 58. Briefly: standard microplate test in BHI Agar. As to conditions: Klebsiella pneumoniae, read-out: Minimal Inhibitory Concentration. The method, then:
as §2

The subject of the next assay is P. rettgeri UC 339. Kind of assay: standard microplate test in BHI Agar. As to conditions: Providencia rettgeri, UC339; BHI Agar, 37°, 20 hours; Table IV; read-out: Minimal Inhibitory Concentration. The method, then:
as §2

Another assay has as its system S. pneumoniae I UC 41. Kind of assay: standard microplate test in BHI Agar. The conditions noted are these: Streptococcus pneumoniae, read-out: Minimal Inhibitory Concentration. The method, then:
as §2

The next assay has as its system P. mirabilis UC 6671. Kind of assay: standard microplate test in BHI Agar. The conditions noted are these: Proteus mirabilis, UC6671; BHI Agar, 37°, 20 hours; Table IV; read-out: Minimal Inhibitory Concentration. The method, then: as §2
In the next assay the test system is S. flexneri UC 143. Kind of assay: standard microplate test in BHI Agar. As to conditions: Shigella flexneri, UC143, 37°, 20 hours, Table IV, read-out: Minimal Inhibitory Concentration. Here is the method:
as §2

The subject of another assay is P. morganii UC 3186. Kind of assay: standard microplate test in BHI Agar. As to conditions: Morganella morganii, read-out: Minimal Inhibitory Concentration. Here is the method:
as §2

Molecules are shown by their SMILES. In brackets after ≈: the same amount, converted by molar mass. Where two headings read alike, the source gives them in different places.

As for `NC[C@H]1O[C@H](O[C@@H]2[C@@H](N)C[C@@H](N)C[C@@H]2O)[C@H](N)[C@@H](O)[C@@H]1O` [6-Deoxy-5-epineamine (XI), 6-deoxy-5-epineamine], the zone of inhibition at 100 µg/mL with S. gallinarum UC 265 (Table II) was found to be 18 mm; in the assay with B. subtilis UC 564 (Table II), 26 mm; with K. pneumoniae UC 57 (Table II), 23 mm; in the assay with E. coli UC 51 (Table II), 16 mm; in the assay on S. aureus UC 80 (UC80, Table II, read-out: Zones of Inhibition), 17 mm. Also, the zone of inhibition at 1000 µg/mL stood at 27 mm with S. gallinarum UC 265 (Table II); 35 mm in the assay on B. subtilis UC 564 (Table II); 21 mm in the assay with S. schottmuelleri UC 126 [1] (Table II); 24 mm in the assay on P. vulgaris UC 93 [2] (Table II); 30 mm with K. pneumoniae UC 57 (Table II); 17 mm with Ps. aeruginosa UC 95 [3]. For the same compound, the zone of inhibition at 1000 µg/mL was determined as 24 mm in the assay with E. coli UC 51 (Table II); 22 mm in the assay with B. cereus UC 3145 (UC3145, 1 mg/ml, Table II, read-out: Zones of Inhibition); 17 mm in the assay with S. lutea UC 130 (Table II); 24 mm in the assay with S. aureus UC 80 (UC80, 1 mg/ml, Table II, read-out: Zones of Inhibition).

`NC[C@H]1O[C@H](O[C@@H]2[C@@H](N)C[C@@H](N)C[C@H]2O[C@@H]2C[C@@H](N)[C@H](O)[C@@H](CO)O2)[C@H](N)[C@@H](O)[C@@H]1O` [Compound XVI, O-2,6-diamino-2,6-dideoxy-α-D-glucopyranosyl (1→4)-O-[3-amino-2,3-dideoxy-α-D-arabinohexopyranosyl(1→5)]-2,6-dideoxy-D-streptamine]: the zone of inhibition at 1000 µg/mL in the assay with S. gallinarum UC 265 (Table I) was 20 mm; in the assay with B. subtilis UC 564 (Table I) it was 34 mm; with S. schottmuelleri UC 126 [1] (Table I), 15 mm; in the assay on P. vulgaris UC 93 [2] (Table I) it was 18 mm; in the assay on K. pneumoniae UC 57 (Table I), 24 mm; in the assay with E. coli UC 51 (Table I), 19 mm. For the same compound, the zone of inhibition at 1000 µg/mL came out at 18 mm in the assay on B. cereus UC 3145 (UC3145, 1 mg/ml, Table I, read-out: Zones of Inhibition) and 21 mm with S. aureus UC 80 (UC80, read-out: Zones of Inhibition, 1 mg/ml, Table I). In the assay with B. subtilis UC 564 (Table I), the zone of inhibition at 100 µg/mL worked out at 25 mm. The MIC with S. schottmuelleri UC 126 [4] is greater than 500 mg/L; in the assay on P. vulgaris UC 93 [5] it was greater than 500 mg/L; in the assay on S. marcescens UC 131, greater than 500 mg/L; in the assay with E. coli UC 311, greater than 500 mg/L; in the assay with Ps. aeruginosa UC 95 [6], greater than 500 mg/L; in the assay with S. aureus UC 76 (UC76, BHI Agar, 37°, 20 hours, Table IV) it was 250 mg/L (≈ 554 µM). Moreover, the MIC is 250 mg/L (≈ 554 µM) with S. pyogenes UC 152 (UC152, BHI Agar, 37°, 20 hours, Table IV); greater than 500 mg/L in the assay on S. faecalis UC 694; greater than 500 mg/L with S. typhi UC 215; 125 mg/L (≈ 277 µM) with K. pneumoniae UC 58 (UC58, BHI Agar, 37°, 20 hours, Table IV); greater than 500 mg/L in the assay on P. rettgeri UC 339; greater than 500 mg/L with S. pneumoniae I UC 41 (UC41, BHI Agar, 37°, 20 hours, Table IV (printed D. pneumoniae UC 41)). Moreover, the MIC in the assay with P. mirabilis UC 6671 is greater than 500 mg/L; with S. flexneri UC 143, greater than 500 mg/L; with P. morganii UC 3186 (UC3186, BHI Agar, 37°, 20 hours, Table IV), 250 mg/L (≈ 554 µM).

For the compound `NC[C@H]1O[C@H](O[C@@H]2[C@@H](N)C[C@@H](N)C[C@H]2O[C@H]2O[C@H](CO)[C@@H](O)[C@H]2O)[C@H](N)[C@@H](O)[C@@H]1O` [Compound XVα, O-2,6-diamino-2,6-dideoxy-α-D-glucopyranosyl (1→4)-O-[α-D-ribofuranosyl(1→5)]-2,6-dieoxy-D-streptamine], the zone of inhibition at 100 µg/mL in the assay on S. gallinarum UC 265 (Table I) turned out to be 17 mm; in the assay on B. subtilis UC 564 (Table I), 25 mm; in the assay on K. pneumoniae UC 57 (Table I), 23 mm; with E. coli UC 51 (Table I), 17 mm; in the assay on S. aureus UC 80 (UC80, Table I, read-out: Zones of Inhibition), 17 mm. The zone of inhibition at 1000 µg/mL worked out at 26 mm in the assay with S. gallinarum UC 265 (Table I); 34 mm with B. subtilis UC 564 (Table I); 20 mm with S. schottmuelleri UC 126 [1] (Table I); 23 mm in the assay on P. vulgaris UC 93 [2] (Table I); 31 mm in the assay with K. pneumoniae UC 57 (Table I); 24 mm in the assay on E. coli UC 51 (Table I). In addition, the zone of inhibition at 1000 µg/mL with B. cereus UC 3145 (UC3145, read-out: Zones of Inhibition, 1 mg/ml, Table I) stood at 20 mm; in the assay with S. lutea UC 130 (Table I), 16 mm; with S. aureus UC 80 (UC80, 1 mg/ml, Table I, read-out: Zones of Inhibition), 25 mm. Moreover, the MIC is 125 mg/L (≈ 285 µM) in the assay with S. schottmuelleri UC 126 [4]; 500 mg/L (≈ 1140 µM) in the assay on P. vulgaris UC 93 [5]; 500 mg/L (≈ 1140 µM) in the assay with S. marcescens UC 131; 250 mg/L (≈ 570 µM) with E. coli UC 311; greater than 500 mg/L with Ps. aeruginosa UC 95 [6]; 125 mg/L (≈ 285 µM) with S. aureus UC 76 (UC76, 20 h). For the same compound, the MIC with S. pyogenes UC 152 (UC152, 20 h) was 31.2 mg/L (≈ 71.2 µM); with S. faecalis UC 694 it was greater than 500 mg/L; in the assay on S. typhi UC 215, 62.5 mg/L (≈ 143 µM); in the assay with K. pneumoniae UC 58 (UC58, 20 h), 15.6 mg/L (≈ 35.6 µM); in the assay with P. rettgeri UC 339, greater than 500 mg/L; with S. pneumoniae I UC 41 (UC41, 20 h), 125 mg/L (≈ 285 µM). For the same compound, the MIC is greater than 500 mg/L in the assay on P. mirabilis UC 6671; 500 mg/L (≈ 1140 µM) with S. flexneri UC 143; 125 mg/L (≈ 285 µM) in the assay on P. morganii UC 3186 (UC3186, 20 h).
